Columns and labels:
[1] = test system: anti-HA (influenza) IgG antibodies; test: ELISA for serum anti-HA IgG after single oral dose of influenza vaccine with delivery agent; format: in vivo, BALB/c mice; settings: single oral dose 15 μg influenza vaccine A/Johannesburg/39/94 (H3N2) + 500 mg/kg delivery agent
Experimental: Ten BALB/c mice were administered a single oral dose of 15 μg of influenza antigen [influenza vaccine A/Johannesburg/39/94 (H3N2)] per mouse with 500 mg/kg of E352.
1. Coat plates with HA antigen, 10 μg/mL in carbonate buffer.
3. Block with Superblock™ or 1/10 diluted Bovine Serum Albumin (BSA).
4. Add 100 μL per well of diluent (Superblock™ or 1/15 diluted BSA) to all except the top row.
5. In the first row, add 150 μL per well of 1/100 diluted test serum in duplicate and serially dilute 3× down the plate. Leave 2 empty wells as background.
6. Incubate 2 hours at room temperature.
8. To each well, add 100 μl of IgG isotype-specific anti-mouse alkaline-phosphatase conjugated antibody (diluted with 4% PEG 6000).20. Incubate overnight at 4/C.
10. Add 100 μL per well of p-nitrophenyl phosphate (pNPP) substrate solution and incubate in the dark with shaking for 30 minutes.
11. Read and record OD405 after subtracting the background absorbance.

[2] = test system: Experimental Autoimmune Encephalomyelitis (EAE)
Experimental: Two days after the (last) oral dose, all groups were challenged in the footpad with 0.05 mg of MBP emulsified with Complete Freund's Adjuvant containing Mycobacterium tuberculosis H37Ra, 4 mg/ml. Clinical signs of disease were observed starting on Day 11 after the challenge and rated on a scale of 0 (no disease) to 5 (death).

[3] = single dose MBP + delivery agent versus one or five doses of MBP alone

`O=C(O)CCCc1ccc(NC(=O)c2ccccc2O)cc1` [E352, 4-[4-(N-salicyloyl)]aminophenyl butyric acid] was tested, and the “serum anti-HA IgG titer relative to control fed only influenza antigen” value [1] was “significantly suppressed the production of anti-influenza antibodies”, the “Mean Disease Index per group (highest mean score multiplied by the duration of symptoms)” value [2, 3] was “suppressed these disease parameters significantly” and the “mean Maximal Score per group” value [2, 3] was “suppressed these disease parameters significantly”. The “mean day of onset of paralysis” value ([2]; single oral dose 1.0 mg MBP alone or with delivery agent, day after challenge) was 16 days and the “clinical disease (Mean Clinical Score) of EAE” value ([2]; single oral dose 1.0 mg MBP with delivery agent, footpad challenge 0.05 mg MBP/CFA, scale 0 to 5) was “suppression of clinical disease”.

— patent US6391303B1, “Methods and compositions for inducing oral tolerance in mammals” (Emisphere Technologies, Inc., priority 1996, dated 2002)
